The source made the active and inactive calls. No cut-off for these calls is given here.

By IC50 is commonly meant the concentration that gives 50% inhibition. Read a low IC50 as higher potency.

Test [1] is filed under the species Mus musculus. As to the kind of experiment: Growth inhibition of mouse 26-L5 cells at 3 ug/ml by WST1 method. The class given is functional. On the technique in general: Tetrazolium dyes change colour on reduction, which living cells bring about.
Test [2] in a line: Inhibition of invasion of mouse 26-L5 cells. The test is classed as functional.

Consider `CCCCc1c(O)c(C)c(O)c2c1C(=O)c1c(O)cccc1C2=O` [LUPINACIDIN B], for which the outcome in test [1] was inactive. The compound also displayed an IC50 in test [2] of 920 nM.
For `Cc1c(O)c(CCC(C)C)c2c(c1O)C(=O)c1cccc(O)c1C2=O` [LUPINACIDIN A] the same measures were “Active” and 210 nM.

The values are drawn from ChEMBL document CHEMBL1145357, “Antitumor anthraquinones from an endophytic actinomycete Micromonospora lupini sp. nov” (Bioorg Med Chem Lett, 2007).
